One assay addresses α1β2γ2 GABAA receptors (Homo sapiens (Human), UniProt P14867+P47870). The experiment in a line: Patch clamp electrophysiology (QPatch) of recombinant α1β2γ2 GABAA receptors in LTK cells. The assay is classed as cell-based. The following applies: 10 μM test article, GABA EC20 = 2 μM, read-out: GABA (α1β2γ2) Qpatch in Ltk, % efficacy at 10 μM. Here is the method:
(§1) Cellular electrophysiology is used to measure the pharmacological properties of our GABAA receptor modulators in heterologous cell systems. Each compound is tested for its ability to affect GABA mediated currents at a suhmaximal agonist dose (GABA EC20=2 μM). LTK cells are stably transfected with the α1β2γ2 subunits of the GABA receptor and CHO cells are transiently transfected with the α4β3δ subunits via the Lipofecatamine method. Cells were passaged at a confluence of about 50-80% and then seeded onto 35 mm sterile culture dishes containing 2 ml culture complete medium without antibiotics or antimycotics. Confluent clusters of cells are electrically coupled (Pritchett et al., Science, 1988, 242, 1306-1308). Because responses in distant cells are not adequately voltage clamped and because of uncertainties about the extent of coupling (Verdoom et al., Neuron 1990, 4, 919-928), cells were cultivated at a density that enables the recording of single cells (without visible connections to other cells).
(§2) Whole cell currents were measured with HEKA EPC-10 amplifiers using PatchMaster software or by using the high throughput QPatch platform (Sophion). Bath solution for all experiments contained (in mM): NaCl 137 mM, KCl 4 mM, CaCl2 1.8 mM, MgCl2 1 mM, HEPES 10 mM, D-Glucose 10 mM, pH (NaOH) 7.4. In some cases 0.005% cremophor was also added. Intracellular (pipette) solution contained: KCl 130 mM, MgCl2 1 mM, Mg-ATP 5 mM, HEPES 10 mM, EGTA 5 mM, pH 7.2. During experiments, cells and solutions were maintained at room temperature (19° C.-30° C.). For manual patch clamp recordings, cell culture dishes were placed on the dish holder of the microscope and continuously perfused (1 ml/min) with bath solution. After formation of a Gigaohm seal between the patch electrodes and the cell (-ipette resistance range: 2.5 MΩ-6.0 MΩ; seal resistance range:>1 GΩ) the cell membrane across the pipette tip was ruptured to assure electrical access to the cell interior (whole-cell patch-configuration). For experiments using the QPatch system, cells were transferred as suspension to the QPatch system in the bath solution and automated whole cell recordings were performed.
(§3) Cells were voltage clamped at a holding potential of −80 mV. For the analysis of test articles, GABA receptors were stimulated by 2 μM GABA after sequential pre-incubation of increasing concentrations of the test article. Pre-incubation duration was 30 s and the duration of the GABA stimulus was 2s. Test articles were dissolved in DMSO to form stock solutions (10 mM). Test articles were diluted to 0.01, 0.1, 1, and 10 μM in bath solution. All concentrations of test articles were tested on each cell. The relative percentage potentiation was defined as the peak amplitude in response to GABA EC20 in the presence of the test article divided by the peak amplitude in response to GABA EC20 alone, multiplied by 100. For Table 2. GABAA receptors α1β2γ2 and α4β3δ% efficacy: “A” 10-100, “B”>100-500, “C”>500; D indicates the data is not available or has not been determined.

The next assay has as its target α4β3δ GABAA receptors (Homo sapiens (Human), UniProt P28472+P48169). In words: Patch clamp electrophysiology (manual patch) of recombinant α4β3δ GABAA receptors in CHO cells. The assay is classed as cell-based. The settings on record: 10 μM test article, GABA EC20 = 2 μM, read-out: GABA (α4β3δ) Manual patch in CHO, % efficacy at 10 μM. Here is the method:
as §1, §2, §3

The next assay relates to PTZ-treated mice. In words: Acute PTZ method (pentylenetetrazol-induced seizure assay). The settings on record: Mus musculus, lowest dose with significant effect on latency to tonic seizures, PO, read-out: Anticonvulsive Effect Dose (minimal effective anticonvulsant dose). In kind it is in vivo. Here is the method:
The anticonvulsant effect of test compounds were assessed in a pentylenetetazol-induced seizure assay in mice similar to methods described in Giardina & Gasior (Curr Protoc Pharmacol. 2009). Male CD-1 mice were housed in groups of five under controlled conditions (temperature of 22±2° C. and 12:12 light-dark cycle, lights on at 8:00 am) and water and food were available ad libitum. The mice were housed for 1 week prior to behavioral testing, at which time they weighed 25-35 g. Pentylenetetrazol (PTZ, Sigma) was dissolved in sterile 0.9% saline at a concentration of 12 mg/mL concentration for subcutaneous administration. Test compounds were formulated and administered via oral gavage or intraperitoneal injection at a predetermined time-point (typically 30 or 60 minutes) prior to PTZ injection. All solutions were made fresh and given in a volume corresponding to 10 ml/kg body weight.
Mice were acclimated to the test room for at least 30 min before compound administration. Mice were randomized into at least four test groups (vehicle and at least three doses of the test compound) with 10 mice per group. […] Following the drug pretreatment time the mice were injected s.c. with PTZ (120 mg/kg). Immediately following the PTZ injection, mice were individually placed into observation chambers (25×15×15 cm) and a three-channel timer was started. Each mouse was continuously observed for 30 min and the following behaviors were recorded by observers blinded to the treatments: 1) latency to clonic convulsions that persist for 3 sec and followed by an absence of righting reflex 2) latency to tonic convulsions, characterized by the rigid extension of all four limbs that exceeded a 90 degree angle with the body 3) latency to death 4) number of clonic and tonic convulsions. Data are presented as mean±S.E.M and one-way ‘nalysis of vari’nce with Dunnett's or Bonferroni's post-hoc test was used to detect significant differences in latency and number between the vehicle and dose group, p values<0.05 were regarded as statistically significant.

The structures appear in SMILES notation.

As for `C[C@@]1(O)CC[C@@]2(C)[C@@H](CC[C@@H]3[C@@H]2CC[C@]2(C)[C@@H](C(=O)Cn4nnc5cc(F)c(F)cc54)CC[C@@H]32)C1` [Compound 124], the Emax at 10 µM was 100 to 500% on α1β2γ2 GABAA receptors and more than 500% on α4β3δ GABAA receptors. As for `COC[C@@]1(O)CC[C@@]2(C)[C@@H](CC[C@@H]3[C@@H]2CC[C@]2(C)[C@@H](C(=O)Cn4nnnc4C)CC[C@@H]32)C1` [Compound 193], the Emax at 10 µM at α1β2γ2 GABAA receptors and on α4β3δ GABAA receptors was more than 500% each time. Also, the minimal effective dose in the assay with PTZ-treated mice fell in the range of 1 to 5 mg/kg. For `COC[C@@]1(O)CC[C@@]2(C)[C@@H](CC[C@@H]3[C@@H]2CC[C@]2(C)[C@@H](C(=O)Cn4nnc(C)n4)CC[C@@H]32)C1` [Compound 194], the minimal effective dose with PTZ-treated mice is not above 1 mg/kg. Moreover, the Emax at 10 µM on α4β3δ GABAA receptors is more than 500%. For `C[C@@]1(O)CC[C@@]2(C)[C@H](CC[C@@H]3[C@@H]2CC[C@]2(C)[C@@H](C(=O)Cn4nccn4)CC[C@@H]32)C1` [Compound 207] the same measures were not below 5 mg/kg and more than 500%. As to `Cc1nnnn1CC(=O)[C@H]1CC[C@H]2[C@@H]3CC[C@@H]4C[C@](C)(O)CC[C@]4(C)[C@H]3CC[C@]12C` [Compound 31], the minimal effective dose with PTZ-treated mice was not below 5 mg/kg. Take `C[C@@]1(O)CC[C@@]2(C)[C@H](CC[C@@H]3[C@@H]2CC[C@]2(C)[C@@H](C(=O)Cn4ncnn4)CC[C@@H]32)C1` [Compound 54]: the minimal effective dose in the assay on PTZ-treated mice fell in the range of 1 to 5 mg/kg. Regarding `C[C@@]1(O)CC[C@@]2(C)[C@@H](CC[C@@H]3[C@@H]2CC[C@]2(C)[C@@H](C(=O)Cn4ncnn4)CC[C@@H]32)C1` [Compound 118], the Emax at 10 µM on α1β2γ2 GABAA receptors was 100 to 500%; at α4β3δ GABAA receptors, more than 500%. The like results for `C[C@@]1(O)CC[C@@]2(C)[C@@H](CC[C@@H]3[C@@H]2CC[C@]2(C)[C@@H](C(=O)Cn4ccc(C#N)n4)CC[C@@H]32)C1` [Compound 121] were, in that order, more than 500% and more than 500%. In the case of `C[C@@]1(O)CC[C@@]2(C)[C@H](CC[C@@H]3[C@@H]2CC[C@]2(C)[C@@H](C(=O)Cn4nc5cc(F)cc(F)c5n4)CC[C@@H]32)C1` [Compound 28], the minimal effective dose with PTZ-treated mice was not above 1 mg/kg. Same read-out and setting: with `C[C@@]1(O)CC[C@@]2(C)[C@H](CC[C@@H]3[C@@H]2CC[C@]2(C)[C@@H](C(=O)Cn4ccc(C(F)(F)F)n4)CC[C@@H]32)C1` [Compound 19] the figure was not above 1 mg/kg. Take `C[C@@]1(O)CC[C@@]2(C)[C@H](CC[C@@H]3[C@@H]2CC[C@]2(C)[C@@H](C(=O)Cn4ccnc4C#N)CC[C@@H]32)C1` [Compound 143]: the Emax at 10 µM on α1β2γ2 GABAA receptors and on α4β3δ GABAA receptors was more than 500% throughout. As for `Cc1nnn(CC(=O)[C@H]2CC[C@H]3[C@@H]4CC[C@H]5C[C@](C)(O)CC[C@]5(C)[C@H]4CC[C@]23C)n1` [Compound 206], the minimal effective dose in the assay with PTZ-treated mice was not above 1 mg/kg. Moreover, the Emax at 10 µM at α4β3δ GABAA receptors is more than 500%. With `COC[C@@]1(O)CC[C@@]2(C)[C@@H](CC[C@@H]3[C@@H]2CC[C@]2(C)[C@@H](C(=O)Cn4cc(C#N)cn4)CC[C@@H]32)C1` [Compound 142], the Emax at 10 µM on α1β2γ2 GABAA receptors and at α4β3δ GABAA receptors was more than 500% throughout. Consider `CO[C@H]1C[C@@]2(C)[C@@H](CC[C@@H]3[C@@H]2CC[C@]2(C)[C@@H](C(=O)Cn4nccn4)CC[C@@H]32)C[C@@H]1O` [Compound 2], for which the Emax at 10 µM at α1β2γ2 GABAA receptors and on α4β3δ GABAA receptors was 100 to 500% each time.

In the case of `Cc1nnn(CC(=O)[C@@H]2CC[C@H]3[C@@H]4CC[C@@H]5C[C@](C)(O)CC[C@]5(C)[C@H]4CC[C@]23C)n1` [Compound 32], the minimal effective dose with PTZ-treated mice was not above 1 mg/kg. On to `C[C@@]1(O)CC[C@@]2(C)[C@H](CC[C@@H]3[C@@H]2CC[C@]2(C)[C@@H](C(=O)Cn4cc(Cl)cn4)CC[C@@H]32)C1` [Compound 133], for which the Emax at 10 µM was 100 to 500% on α1β2γ2 GABAA receptors and more than 500% on α4β3δ GABAA receptors.

Turning to `C[C@@]1(O)CC[C@@]2(C)[C@H](CC[C@@H]3[C@@H]2CC[C@]2(C)[C@@H](C(=O)Cn4cc(C(F)(F)F)cn4)CC[C@@H]32)C1` [Compound 134], the Emax at 10 µM at α1β2γ2 GABAA receptors and at α4β3δ GABAA receptors was more than 500% in each case.
